Entries after “also recorded” stand apart in the source; their conditions may differ. Read-outs that look alike come from different tables or passages of the source. Each block holds one compound with its values, some of them ahead of it.
Key:
S1P receptors = conditions: cited from earlier work; for Effect on S1PRs: non-phosphorylated form, ref Qin et al., 2013
BMDMs = assay: LPS-induced inflammation assay in WT and TRPM7 KO BMDMs (qRT-PCR); type: cell-based, mice; conditions: 10 µM VPC4, 10 µM AAL-149, 5 µM FTY720, 30 μM NS8593
Procedure: All cells were cultured at 37°C with 5% CO2. HEK 293T cells (CRL-3216; ATCC), HeLa cells (CCL-2; ATCC), RAW 264.7 macrophages (TIB-71; ATCC), and BV-2 microglial cells (ABC-TC212S; AcceGen Biotech) were cultured in DMEM (11995065; Gibco) with 10% fetal bovine serum (FBS; Avantor Seradigm Premium Grade Fetal Bovine Serum 97068-085). FBS was heat-inactivated prior to use at 56°C for 30 min. BMDMs were isolated and cultured as previously described ([Schappe et al., 2018]) and differentiated into mature macrophages over 7 d through culture in BMDM media (RPMI 1640, 10% FBS, and 20% L-929 culture supernatant; Gibco).
(§1) RAW 264.7 macrophages or BMDMs were seeded at a density of 250,000 cells per well into a 12-well tissue culture plate in 1 ml of media and left to incubate overnight. The indicated drug or vehicle control was added to each well, and the plate was agitated and left to incubate for 10 min. The cells were then treated with LPS (1 µg/ml) or an equivalent volume of PBS, agitated, and left to incubate for 3 h. Cells were washed with PBS and then RNA isolation was performed using RNeasy Plus Micro Kit (74134; Qiagen). cDNA was produced using GoScript Reverse Transcriptase (A5004; Promega) and a quantitative PCR was performed using SensiFast SYBR (98020; Bioline) and Bio-Rad CFX Connect thermocycler. Each datum represents an individual, biological replicate that is the mean of duplicate technical replicates. Fold-changes are all reported relative to untreated controls for each experiment and were calculated using the ∆∆Ct method, with β2-microglobulin used as the housekeeping gene for each sample. The experiment was performed similarly with BV-2 microglia and alveolar macrophages, except that cells were plated at a density of 100,000 cells per well into a 24-well tissue culture plate with 1 ml of media per well.

mouse TRPM7 = target: T1, mouse TRPM7 (Mus musculus, UniProt Q923J1); assay: Whole-cell patch clamp of TRPM7 current (IM7) in HEK 293T cells overexpressing mouse TRPM7; type: cell-based
T1 construct: expressed in transfected cells; host or cells: HEK 293T cells (CRL-3216; ATCC), transient transfection with jetOPTIMUS, co-transfected eGFP as a separate plasmid
Procedure: To overexpress TRPM7, HEK 293T cells were plated at a density of 500,000 cells per well (day 0), transfected at 80–90% confluency (day 1), and were patched 24–36 h after transfection (day 2). TRPM7 overexpression was performed using WT mouse TRPM7 (2.5 µg plasmid DNA; [Desai et al., 2012]) and jetOPTIMUS DNA Transfection Reagent (101000006; Polyplus). To enhance the selection rate of TRPM7-overexpressing cells, eGFP (#22152; Addgene) was included at a 1:10 dilution (0.25 µg) and only GFP-positive cells were patched.
Whole-cell patch clamp electrophysiology was performed as described previously ([Schappe et al., 2022]). Briefly, the external solution contained (in mM) 140 Na-methanesulfonate, 5 Cs-gluconate, 2.5 CaCl2, and 10 HEPES, pH 7.4 (adjusted with NaOH), at an osmolality of 280–290 mOsm/kg. The internal pipette solution contained (in mM) 115 Cs-gluconate, 3 NaCl, 0.75 CaCl2, 10 HEPES, 10 HEDTA, 1.8 Cs4-BAPTA, and 2 Na2ATP, pH 7.3 (adjusted with CsOH), at an osmolality of 273 mOsm/kg. Intracellular free [Ca^2+] was estimated to be ∼100 nM using the online WEBMAXC standard calculator at https://somapp.ucdmc.ucdavis.edu/pharmacology/bers/maxchelator/webmaxc/webmaxcS.htm ([Bers et al., 2010]). Recordings were captured in pCLAMP 9 (Molecular Devices) using a 400-ms ramp protocol from −100 to +100 mV and a holding potential of 0 mV. Sampling was performed at 10 kHz with a 5 kHz low-pass band filter using an Axopatch 200B amplifier (Molecular Devices). All electrophysiology experiments were conducted at RT (∼23°C). […] Similarly, the minimum current for each inhibitor dose is taken as the stable minimum current observed after the drug has had time to exert an effect and after the flow-driven transient increase has subsided.
Data were analyzed using Microsoft Excel, Prism 9.5 (GraphPad Software), and Origin Pro 7.5 (OriginLab). Chemical structures were created using ChemDraw Professional 20.1.1 (PerkinElmer). Electrophysiology traces were plotted using Origin Pro 7.5, and the remaining data were plotted and statistically tested using Prism. Outliers were determined using the robust regression and outlier removal (ROUT) function within Prism. IC50 values were determined by plotting the percentage of maximum current observed as a function of applied drug concentration. A non-linear regression was fit using a standard Hill slope of −1.0 and the model: Y=100/[1+([Inhibitor]/IC50)]. Where appropriate, data are presented as individual values; otherwise the sample sizes and precision measures are indicated in the figure legends. P values of <0.05 were considered statistically significant.

HeLa cells = assay: LDH-release cytotoxicity assay; type: cell-based; conditions: 24 h
Procedure: WT HeLa cells were plated at a density of 10,000 cells per well into a 96-well tissue culture microplate (3610; Costar). AAL-149, VPC01091.4, or vehicle at 0.1, 1, 5, 10, and 25 μM was added to cells with media for a final volume of 100 μl and incubated for 24 h. LDH release was quantified using a CyQUANT LDH Cytotoxicity Assay (C20300; Thermo Fisher Scientific) and a FlexStation 3 plate reader using SoftMax […] (Molecular Devices).

lymphocytes = system: lymphocytes; parameters: method as in Brinkmann et al., 2002; Zhu et al., 2007; conditions: ref Brinkmann et al., 2002; Zhu et al., 2007; cited from earlier work
RAW 264.7 macrophages = assay: LPS-induced inflammatory gene expression (qRT-PCR) in RAW 264.7 macrophages; type: cell-based; conditions: LPS 1 µg/ml for 3 h
Procedure: as §1, with “μg/ml)” for “µg/ml)”, “([…];” for “(A5004;”, “ΔΔCt” for “∆∆Ct”

TRPM7 = conditions: cited from earlier work; for IC50: read-out: IC50 for TRPM7 inhibition
[1] = system: small-conductance Ca^2+-activated K^+ (SK) channels; parameters: method as in Diness et al., 2010; conditions: ref Diness et al., 2010; read-out: IC50 on SK-family channels; cited from earlier work
[2] = non-phosphorylated form, ref Qin et al., 2013

T1 sequence (Q923J1 whole entry): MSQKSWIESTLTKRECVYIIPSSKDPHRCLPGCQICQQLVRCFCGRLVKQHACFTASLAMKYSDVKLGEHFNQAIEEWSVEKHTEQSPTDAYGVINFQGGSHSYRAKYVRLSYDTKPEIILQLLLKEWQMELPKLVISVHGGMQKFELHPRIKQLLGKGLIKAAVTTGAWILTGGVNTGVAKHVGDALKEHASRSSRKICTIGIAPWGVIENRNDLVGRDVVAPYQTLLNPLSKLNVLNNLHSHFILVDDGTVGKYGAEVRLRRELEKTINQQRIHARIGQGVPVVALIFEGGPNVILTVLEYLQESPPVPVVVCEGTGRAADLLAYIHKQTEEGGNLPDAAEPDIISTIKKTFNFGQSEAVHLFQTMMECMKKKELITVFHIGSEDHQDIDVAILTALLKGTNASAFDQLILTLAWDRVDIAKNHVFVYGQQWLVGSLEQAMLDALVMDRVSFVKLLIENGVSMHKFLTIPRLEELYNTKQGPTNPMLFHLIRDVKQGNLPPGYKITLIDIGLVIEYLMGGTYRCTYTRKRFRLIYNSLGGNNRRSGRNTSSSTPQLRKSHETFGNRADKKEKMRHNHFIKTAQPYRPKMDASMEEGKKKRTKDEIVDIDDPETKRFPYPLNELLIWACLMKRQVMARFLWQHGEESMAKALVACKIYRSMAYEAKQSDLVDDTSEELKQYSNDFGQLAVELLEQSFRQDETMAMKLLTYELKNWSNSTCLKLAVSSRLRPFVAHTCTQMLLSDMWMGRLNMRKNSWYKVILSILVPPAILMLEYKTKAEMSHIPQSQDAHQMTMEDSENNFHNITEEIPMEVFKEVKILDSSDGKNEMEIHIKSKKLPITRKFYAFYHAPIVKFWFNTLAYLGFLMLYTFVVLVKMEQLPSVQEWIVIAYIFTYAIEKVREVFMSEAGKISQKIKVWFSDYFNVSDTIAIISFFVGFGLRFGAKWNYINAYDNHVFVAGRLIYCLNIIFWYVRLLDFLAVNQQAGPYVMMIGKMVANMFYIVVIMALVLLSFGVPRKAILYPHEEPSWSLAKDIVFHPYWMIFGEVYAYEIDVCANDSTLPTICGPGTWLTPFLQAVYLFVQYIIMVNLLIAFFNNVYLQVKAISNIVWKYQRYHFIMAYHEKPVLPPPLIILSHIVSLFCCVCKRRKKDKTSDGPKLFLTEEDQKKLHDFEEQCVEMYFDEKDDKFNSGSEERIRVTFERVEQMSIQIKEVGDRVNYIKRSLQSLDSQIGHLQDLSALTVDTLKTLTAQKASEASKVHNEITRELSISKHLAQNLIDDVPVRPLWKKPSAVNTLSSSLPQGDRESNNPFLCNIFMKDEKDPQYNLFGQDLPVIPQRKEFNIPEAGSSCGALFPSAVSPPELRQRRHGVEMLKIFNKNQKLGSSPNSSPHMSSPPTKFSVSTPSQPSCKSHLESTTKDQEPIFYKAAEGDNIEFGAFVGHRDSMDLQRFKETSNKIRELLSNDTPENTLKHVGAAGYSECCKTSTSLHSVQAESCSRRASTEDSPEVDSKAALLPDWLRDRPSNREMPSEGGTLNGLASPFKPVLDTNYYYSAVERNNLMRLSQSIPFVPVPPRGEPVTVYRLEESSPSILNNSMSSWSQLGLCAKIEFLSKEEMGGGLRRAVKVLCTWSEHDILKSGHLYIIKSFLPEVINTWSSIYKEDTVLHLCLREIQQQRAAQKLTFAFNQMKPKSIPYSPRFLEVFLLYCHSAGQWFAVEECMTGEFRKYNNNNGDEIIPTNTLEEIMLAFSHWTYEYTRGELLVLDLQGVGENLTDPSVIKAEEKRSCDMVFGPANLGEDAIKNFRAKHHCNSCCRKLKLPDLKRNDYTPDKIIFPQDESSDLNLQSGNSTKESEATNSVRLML

Structure (SMILES): CCCCCCCOc1ccc(CC[C@](C)(N)CO)cc1 [AAL-149, (2S)-2-amino-4-(4-heptoxyphenyl)-2-methylbutan-1-ol]
- Activity at S1P receptors (S1P receptors; ref Brinkmann et al., 2002, Zhu et al., 2007): not active
- LPS-induced IL-1β expression in TRPM7 KO BMDMs (BMDMs): able to suppress
- IC50 (mouse TRPM7): 1.08 µM
- Cytotoxicity (LDH release) (HeLa cells; dosages up to 10 µM): did not result in any significant cytotoxicity
- Mean cytotoxicity (LDH release) (HeLa cells; each dose up to 25 µM): < 5%
- Lymphopenia when administered to mice (lymphocytes): do not evoke lymphopenia
- LPS-stimulated IL-1β gene expression (RAW 264.7 macrophages; 10 µM pretreatment): completely abrogated

Structure (SMILES): CCCCCCCCc1ccc(CCC(N)(CO)CO)cc1 [FTY720, fingolimod]
- Effect on S1PRs (S1P receptors): no effect
- LPS-induced IL-1β expression in TRPM7 KO BMDMs (BMDMs): able to suppress
- IC50 (TRPM7; [2]): 0.72 µM
- Effect on whole-cell TRPM7 current (IM7) (mouse TRPM7; 5 µM): inhibited; also recorded: able to inhibit

- IC50 (mouse TRPM7; peak current at +100 mV, HEK 293T overexpressing mouse TRPM7, Hill slope -1.0, read-out: IC50 for inhibition of TRPM7 current (IM7)): 3.38 µM
Structure (SMILES): CCCCCCCCCCCCC/C=C/[C@H](O)[C@@H](N)CO [L-threo-sphingosine, L-threo-(2S,3S)-sphingosine, reference compound]

Structure (SMILES): c1ccc2c(c1)CCC[C@H]2Nc1nc2ccccc2[nH]1 [NS8593, (R)-N-(benzimidazol-2-yl)-1,2,3,4-tetrahydro-1-naphtylamine]
- IC50 [1]: 0.42 to 0.73 µM
- LPS-induced IL-1β expression in TRPM7 KO BMDMs (BMDMs): able to suppress
- IC50 (TRPM7; ref Chubanov et al., 2012): 1.6 µM

Structure (SMILES): CCCCCCCCCCCCC/C=C/[C@@H](O)[C@@H](N)COP(=O)(O)O [S1P, sphingosine-1-phosphate]
- Effect of phosphorylated forms on IM7 (TRPM7; ref Qin et al., 2013): do not inhibit

- Effect on whole-cell TRPM7 current (IM7) (mouse TRPM7; 10 µM): inhibited
Structure (SMILES): CCCCCCCCc1ccc([C@H]2CC[C@](N)(CO)C2)cc1 [VPC01091.1, ((1R,3S)-1-amino-3-(4-octylphenyl)cyclopentyl)methanol]

Structure (SMILES): CCCCCCCCc1ccc([C@H]2CC[C@@](N)(COP(=O)(O)O)C2)cc1 [VPC01091.2-P, ((1S,3S)-1-amino-3-(4-octylphenyl)cyclopentyl)methyl dihydrogen phosphate]
- Effect on whole-cell TRPM7 current (IM7) (mouse TRPM7; 10 µM): negligible effect; also recorded: no effect
- LPS-stimulated IL-1β gene expression (RAW 264.7 macrophages; pretreatment, concentration not given): no significant inhibition

- Effect on whole-cell TRPM7 current (IM7) (mouse TRPM7; 10 µM): inhibited
Structure (SMILES): CCCCCCCCc1ccc([C@@H]2CC[C@](N)(CO)C2)cc1 [VPC01091.3, ((1R,3R)-1-amino-3-(4-octylphenyl)cyclopentyl)methanol]

Structure (SMILES): C=C1CC/C=C(\C)CC[C@@H]2C([C@H](C/C=C(\C)COC(C)=O)OC(C)=O)=CO[C@H](OC(C)=O)[C@@H]12 [Waixenicin A]
- Time to suppress ITRPM7 (TRPM7; 10 μM, ref Zierler et al., 2011): up to 200 s
- IC50 (TRPM7; Mg^2+-free conditions, ref Zierler et al., 2011): 7 µM
- IC50 (TRPM7; recording conditions that limit the development of TRPM7 currents, ref Zierler et al., 2011): 0.016 µM

Structure (SMILES): CCCCCCCCCCCCC/C=C/[C@@H](O)[C@@H](N)CO [sphingosine, D-erythro-sphingosine, reference compound]
- Effect on S1PRs (S1P receptors): no effect
- IC50 (TRPM7; [2]): 0.59 µM

Source: publication PMC10635799, “Analogs of FTY720 inhibit TRPM7 but not S1PRs and exert multimodal anti-inflammatory effects” (The Journal of General Physiology, 2023)
